Test results reported in US7615361B2, “Toxicity screening methods” (Ceetox, Inc., priority 2006, dated 2009).

Tests used:
rat cardiomyocytes = assay: MemTox membrane leakage (AK / α-GST); format: cell-based; conditions: rat, 24 hr
Procedure, shortened: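 Neonatal rat cardiomyocytes were dosed, and the culture medium was collected at the end of exposure to measure total leaked adenylate kinase (luminescence) and/or α-GST (ELISA, 450/650 nm). Percent dead cells was set against 1 mM digitonin as maximum release, then converted to percent live. Values are means of n=3-7.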

BAX = assay: bDNA analysis of mRNA in rat cardiomyocytes; format: cell-based; conditions: after 1 hr at 10 μM
Experimental: (§1) Bcl2 is often induced in response to BAX a protein that promotes apoptosis.
(§2) […] Plates were mixed using a DPC 5 Micromix plate shaker at 37° C. for 15-30 minutes to ensure complete lysis of cells. Cell lysis was confirmed using a Nikon inverted microscope. Plates were stored at −80° C. until further analysis.
(§3) bDNA Analysis (Day 1): All solutions were prepared fresh on the day of analysis. Quantigene® bDNA kit components were brought to room temperature prior to use. Chemicals not supplied by Genospectra were obtained from Sigma-Aldrich.
(§4) On the day of analysis, Target Probe Sets were prepared for probe gene sets by adding 25 μL of each probe set component (CE, LE, BL) to 425 μL stock lysis solution using the following probe set concentrations: CE (50 fmol/μL), LE (200 fmol/μL), BL (100 fmol/μL).
(§5) Cell lysis plates were removed from freezer storage and thawed. […] Next, 10 μL of the appropriate Target Probe Set (PS2) was added to each appropriate well of the Capture Plate. Plates were tightly sealed using a plate sealer and incubated at 53° C. for 16-20 hr (overnight).
(§6) bDNA Analysis (Day 2): Wash buffer was prepared in ultra-pure water using 0.1×Saline-Sodium Citrate (SSC) and 0.03% Lithium Lauryl Sulfate (LLS). Amplifier working solution was prepared by adding 10 μL Amplifier to 10 mL Amplifier Diluent per plate.
(§7) Plates were removed from incubator and washed three times with 300 μL wash buffer. […]

Bcl2 = assay: bDNA analysis of mRNA in rat cardiomyocytes; format: cell-based; conditions: after 6 hr at 10 μM
Experimental: as §1, §2, §3, §4, §5, §6, §7

SK-MEL28 cells = assay: Caspase 3 activity (apoptosis); format: cell-based, human
Experimental: (§8) Caspase 3 Procedure: Caspase 3 activity was determined using a caspase substrate (DEVD, Asp-Glu-Val-Asp) labeled with a fluorescent molecule, 7-Amino4-methylcoumarin (AMC). Caspase 3 cleaves the tetrapeptide between D and AMC, thus releasing the fluorogenic […] AMC. Following the test article exposure to cells in 96-well plates, medium was aspirated from plates and PBS added to each well. Plates were stored at −80° C. to lyse cells and store samples until further analysis. On the day of analysis, plates were removed from freezer and thawed. Caspase buffer with fluorescent substrate was added to each well and incubated at room temperature for 1 hr. AMC release was measured in a spectrofluorometer at an excitation wavelength of 360 nm and an emission wavelength of 460 nm. Values are expressed as relative fluorescent units (RFU).
(§9) Caspase Activity: After sample plates were completely thawed, the caspase substrate buffer mix was added to each plate. Plates were incubated at room temperature for 1hr, shielded from light. Plates were read using a in a spectrofluorometer at an excitation wavelength of 360 nm and an emission wavelength of 460 nm. Values were expressed as relative fluorescent units (RFU).
(§10) The key to the maximal response data can be found below Table 2.
(§11) Dosing solutions were prepared in complete culture medium.

NHEM cells = assay: Caspase 3 activity (apoptosis); format: cell-based, human; conditions: 24 HR
Experimental: as §8, §9, §10, §11

HUVEC = assay: Caspase 3 activity (apoptosis); format: cell-based, human; conditions: 24 HR
Experimental: as §8, §9, §10, §11

C32 cells = assay: Caspase 3 activity (apoptosis); format: cell-based, human; conditions: C32, 24 HR
Experimental: as §8, §9, §10, §11

[1] = MemTox membrane leakage (AK / α-GST); format: cell-based; conditions: human, HUVEC, read-out: MemTox TC50
Experimental: Membrane Leakage (α-Glutathione S-transferase and/or Adenylate Kinase): The presence of Adenylate Kinase (AK) or α-Glutathione S-transferase (α-GST), both enzyme leakage markers, was measured in the culture medium using an activity assay for Adenylate Kinase and/or an ELISA assay for α-GST. At the end of the exposure period, the medium covering the cells in each well was removed and placed into new 96-well plates with appropriate labeling. […] Luminescence (AK) values were measured with a Packard Fusion or equivalent plate reader, and absorbance (α-GST) values were measured with a Packard SpectraCount™ or equivalent reader at 450 nm and reference absorbance at 650 nm.
Membrane Leakage (α-Glutathione S-transferase and/or Adenylate Kinase): Leakage of Adenylate Kinase or α-GST from the cell into the culture medium was determined by collecting the culture medium at the end of the exposure period. Thus, the values measured represent total enzyme leakage lost over the exposure period. The control for 100% dead or maximum enzyme release was based on cells treated with 1 mM digitonin at the time of dosing. Percent dead cells relative to digitonin treated cells was determined and then subtracted from 100% to yield the percent live cells.
as §11

COc1cccc2c1C(=O)c1c(O)c3c(c(O)c1C2=O)C[C@@](O)(C(=O)CO)C[C@@H]3O[C@H]1C[C@H](N)[C@H](O)[C@H](C)O1 [ADRIAMYCIN, Adriamycin]
more potent in the heart cells than in liver cells (cell death as marker) (rat cardiomyocytes): about 2.5 fold | BAX increase (BAX): 3 fold | Bcl2 induction (Bcl2): 6 fold

CC[C@@]1(O)C(=O)OCc2c1cc1n(c2=O)Cc2cc3ccccc3nc2-1 [CAMPTOTHECIN, Camptothecin]
Caspase 3 Activity (Index/Dose): Index (SK-MEL28 cells; SK-MEL28, 24 HR): 3 (400-600 = 3) | Caspase 3 Activity (Index/Dose): Index (SK-MEL28 cells; SK-MEL28, 24 HR, COMP A (LOW) / controls #2): 3 (400-600 = 3) | Caspase 3 Activity (Index/Dose): Dose (SK-MEL28 cells; SK-MEL28, 24 HR, run #2, controls (μM section)): 100 | Caspase 3 Activity (Index/Dose): Dose (SK-MEL28 cells; SK-MEL28, 24 HR, controls (μM section of table)): 300 | Caspase 3 Activity (Index/Dose): Index (SK-MEL28 cells; SK-MEL28, 72 HR, COMP A (LOW) / controls #2): 3 (400-600 = 3) | Caspase 3 Activity (Index/Dose): Dose (SK-MEL28 cells; SK-MEL28, 72 HR, run #2, controls (μM section)): 100 | Caspase 3 Activity (Index/Dose): Index (NHEM cells): 3 (400-600 = 3) | Caspase 3 Activity (Index/Dose): Dose (NHEM cells; controls (μM section)): 300 | Caspase 3 Activity (Index/Dose): Index (HUVEC): 1 (0-200 = 1) | Caspase 3 Activity (Index/Dose): Dose (HUVEC; controls (μM section)): 300 | Caspase 3 Activity (Index/Dose): Index (C32 cells): 4 (600-800 = 4) | Caspase 3 Activity (Index/Dose): Dose (C32 cells; controls (μM section)): 300 | CC50 at 24 h [1]: 13 µM
